Results taken from patent US10035804B2, “Spirodiamine derivatives as aldosterone synthase inhibitors” (Hoffmann-La Roche Inc., priority 2014, dated 2018).

Tests used:
[1] = test system: patients with primary aldosteronism; details: oral; cited from earlier work
[2] = test system: rats with experimental heart failure; details: cited from earlier work
[3] = test system: rat model of chronic kidney disease; details: cited from earlier work; for cardiac and aortic medial hypertrophy / renal effects (albuminuria, azotemia, renovascular hypertrophy, glomerular injury, PAI-1 and osteopontin mRNA, tubulointerstitial fibrosis): angiotensin II and high salt treated rats
human CYP11B1 = human CYP11B1 (Homo sapiens (Human), UniProt P15538); assay: G-402 cellular enzyme assay, human CYP11B1 (cortisol release); type: cell-based; details: G-402 cells expressing human CYP11B1; 1 μM Deoxycortisol; cortisol in supernatant after 16 h
Text: (§1) Herein we identified the use of the G-402 cell line as a host cell to ectopically express (transiently or stably) enzymes of the CYP11 family. Specifically we developed stable G-402 cells expressing ectopically human CYP11B1, human CYP11B2, human CYP11A1, cynmolgus CYP11B1 or cynomolgus CYP11B2 enzyme activity. Importantly the identified cell line G-402 expresses co-factors (adrenodoxin and adrenodoxin reductase) important for the activity of the CYP11 family and no relevant enzyme activity of the CYP11 family (in comparison to H295R cells) was detected in these cells. Therefore the G-402 cell line is uniquely suited as a host cell for the ectopic expression of enzymes from the CYP11 family.
(§2) G-402 cells can be obtained from ATCC (CRL-1440) and were originally derived from a renal leiomyoblastoma.
(§3) The expression plasmids contains the ORF for either human/cyno CYP11B1 or CYP11B2 under the control of a suitable promoter (CMV-promoter) and a suitable resistance marker (neomycin). Using standard techniques the expression plasmid is transfected into G-402 cells and these cells are then selected for expressing the given resistance markers. Individual cell-clones are then selected and assessed for displaying the desired enzymatic activity using 11-Deoxycorticosterone (Cyp11B2) or 11-Deoxycortisol (Cyp11B1) as a substrate.
(§4) G-402 cells expressing CYP11 constructs were established as described above and maintained in McCoy's 5a Medium Modified, ATCC Catalog No. 30-2007 containing 10% FCS and 400 μg/ml G418 (Geneticin) at 37° C. under an atmosphere of 5% CO2/95% air. Cellular enzyme assays were performed in DMEM/F12 medium containing 2.5% charcoal treated FCS and appropriate concentration of substrate (0.3-10 uM 11-Deoxycorticosterone, 11-Deoxycortisol or Corticosterone). For assaying enzymatic activity, cells were plated onto 96 well plates and incubated for 16 h. An aliquot of the supernatant is then transferred and analyzed for the concentration of the expected product (Aldosterone for CYP11B2; Cortisol for CYP11B1). The concentrations of these steroids can be determined using HTRF assays from CisBio analyzing either Aldosterone or Cortisol.
(§5) Inhibition of the release of produced steroids can be used as a measure of the respective enzyme inhibition by test compounds added during the cellular enzyme assay. The dose dependent inhibition of enzymatic activity by a compound is calculated by means of plotting added inhibitor concentrations (x-axes) vs. measured steroid/product level (y-axes). The inhibition is then calculated by fitting the following 4-parameter sigmoidal function (Morgan-Mercer-Flodin (MMF) model) to the raw data points using the least squares method:
(§6) [formula] wherein, A is the maximum y value, B is the EC50 factor determined using XLFit, C is the minimum y value and D is the slope value.
(§7) EC50 values for compounds claimed herein were tested with the G402-based assay system described. Cyp11B2 enzyme activity was tested in presence of 1 μM Deoxycorticosterone and variable amounts of inhibitors; Cyp11B1 enzyme activity was tested in presence of 1 μM Deoxycortisol and variable amounts of inhibitors.

human CYP11B2 = human CYP11B2 (Homo sapiens (Human), UniProt P19099); assay: G-402 cellular enzyme assay, human CYP11B2 (aldosterone release); type: cell-based; details: G-402 cells expressing human CYP11B2; 1 μM Deoxycorticosterone; aldosterone in supernatant after 16 h
Text: as §1, §2, §3, §4, §5, §6, §7

human CYP11B2, sequence (P19099 25-503): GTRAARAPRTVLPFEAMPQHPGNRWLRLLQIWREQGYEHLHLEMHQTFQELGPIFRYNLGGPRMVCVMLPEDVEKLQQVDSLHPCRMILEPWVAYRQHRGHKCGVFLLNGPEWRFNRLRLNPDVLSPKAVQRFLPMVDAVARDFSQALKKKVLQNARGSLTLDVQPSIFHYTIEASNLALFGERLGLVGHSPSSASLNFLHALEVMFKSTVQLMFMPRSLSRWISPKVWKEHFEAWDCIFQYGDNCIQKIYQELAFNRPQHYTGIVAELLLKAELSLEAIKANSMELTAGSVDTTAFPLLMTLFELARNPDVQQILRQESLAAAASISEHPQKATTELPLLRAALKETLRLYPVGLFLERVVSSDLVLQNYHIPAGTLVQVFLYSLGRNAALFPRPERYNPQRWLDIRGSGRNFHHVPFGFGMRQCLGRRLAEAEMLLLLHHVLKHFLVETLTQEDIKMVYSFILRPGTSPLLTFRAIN
human CYP11B1, sequence (P15538 25-503): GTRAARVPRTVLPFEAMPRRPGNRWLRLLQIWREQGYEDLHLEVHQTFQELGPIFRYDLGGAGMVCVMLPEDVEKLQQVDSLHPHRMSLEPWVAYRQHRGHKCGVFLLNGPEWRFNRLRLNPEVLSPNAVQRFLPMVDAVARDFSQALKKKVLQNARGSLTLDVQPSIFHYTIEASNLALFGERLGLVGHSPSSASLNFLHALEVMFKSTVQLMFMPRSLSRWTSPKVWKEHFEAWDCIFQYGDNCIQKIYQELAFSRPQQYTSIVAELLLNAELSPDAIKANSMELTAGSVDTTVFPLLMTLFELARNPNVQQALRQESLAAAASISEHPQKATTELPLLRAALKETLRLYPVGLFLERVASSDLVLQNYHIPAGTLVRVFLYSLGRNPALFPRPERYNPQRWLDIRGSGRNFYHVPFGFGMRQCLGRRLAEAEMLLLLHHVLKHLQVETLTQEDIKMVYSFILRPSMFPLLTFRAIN

Compound | EC50 (human CYP11B1) | EC50 (human CYP11B2) | other results
N#Cc1ccc([C@H]2CCc3cncn32)c(F)c1 [LC1699] | – | – | blood pressure [1]: mildly decreased; circulating aldosterone levels [1]: significantly lower; hypokalemia [1]: corrected; selectivity (effects on the glucocorticoid axis, cortisol synthesis) [1]: poor selectivity
N#Cc1ccc([C@H]2CCCc3cncn32)cc1 [FAD286] | – | – | blood pressure and cardiovascular function and structure [2]: improved; kidney function and morphology [2]: improve; cardiac and aortic medial hypertrophy [3]: attenuated; renal effects (albuminuria, azotemia, renovascular hypertrophy, glomerular injury, PAI-1 and osteopontin mRNA, tubulointerstitial fibrosis) [3]: prevented these renal effects; plasma aldosterone ([3]; following 4 weeks of treatment): reduced
Cn1nccc1C(=O)N1CC2(C1)CN(c1cncc(N3C(=O)c4ccc(Cl)cc4C3(C)C)c1)C2 [Example 5, 5-Chloro-3,3-dimethyl-2-[5-[2-(2-methylpyrazole-3-carbonyl)-2,6-diazaspiro[3.3]heptan-6-yl]-3-pyridyl]isoindolin-1-one] | 15700 pM | 145 pM | –
Cc1nc(C)c(C(=O)N2CC3(C2)CN(c2cncc(N4C(=O)c5ccc(Cl)cc5C4(C)C)c2)C3)o1 [Example 44, 5-Chloro-2-[5-[2-(2,4-dimethyloxazole-5-carbonyl)-2,6-diazaspiro[3.3]heptan-6-yl]-3-pyridyl]-3,3-dimethyl-isoindolin-1-one] | 18000 pM | 90.7 pM | –
Cn1cc(C(=O)N2CC3(C2)CN(c2cncc(N4CCc5cc(Cl)ccc5C4=O)c2)C3)cn1 [Example 53, 6-Chloro-2-[5-[2-(1-methylpyrazole-4-carbonyl)-2,6-diazaspiro[3.3]heptan-6-yl]-3-pyridyl]-3,4-dihydroisoquinolin-1-one] | 14600 pM | 45.9 pM | –
Cc1c(C(=O)N2CC3(C2)CN(c2cncc(N4C(=O)c5ccc(Cl)cc5C4(C)C)c2)C3)cnn1C [Example 26, 5-Chloro-2-[5-[2-(1,5-dimethylpyrazole-4-carbonyl)-2,6-diazaspiro[3.3]heptan-6-yl]-3-pyridyl]-3,3-dimethyl-isoindolin-1-one] | 35500 pM | 77.5 pM | –
Cc1ncc(Cl)c(C(=O)N2CC3(C2)CN(c2cncc(N4C(=O)c5ccc(Cl)cc5C4(C)C)c2)C3)n1 [Example 47, 5-Chloro-2-[5-[2-(5-chloro-2-methyl-pyrimidine-4-carbonyl)-2,6-diazaspiro[3.3]heptan-6-yl]-3-pyridyl]-3,3-dimethyl-isoindolin-1-one] | 8310 pM | 504 pM | –
Cc1ccncc1C(=O)N1CCC2(CC1)CN(c1cncc(N3C(=O)c4ccc(Cl)cc4C3(C)C)c1)C2 [Example 57, 5-Chloro-3,3-dimethyl-2-[5-[7-(4-methylpyridine-3-carbonyl)-2,7-diazaspiro[3.5]nonan-2-yl]-3-pyridyl]isoindolin-1-one] | 9720 pM | 49 pM | –
CC(=O)S[C@@H]1CC2=CC(=O)CC[C@]2(C)[C@H]2CC[C@@]3(C)[C@@H](CC[C@@]34CCC(=O)O4)[C@H]12 [spironolactone] | – | – | cardiac and aortic medial hypertrophy [3]: attenuated; renal effects (albuminuria, azotemia, renovascular hypertrophy, glomerular injury, PAI-1 and osteopontin mRNA, tubulointerstitial fibrosis) [3]: prevented these renal effects; aldosterone ([3]; at 4 and 8 weeks of treatment): increased; angiotensin II and salt-stimulated PAI-1 mRNA expression ([3]; in the aorta and the heart): enhanced
Cn1nccc1C(=O)N1CC2(C1)CN(c1cncc(N3C(=O)c4ccc(C#N)cc4C3(C)C)c1)C2 [Example 12, 3,3-Dimethyl-2-[5-[2-(2-methylpyrazole-3-carbonyl)-2,6-diazaspiro[3.3]heptan-6-yl]-3-pyridyl]-1-oxo-isoindoline-5-carbonitrile] | > 30000 pM | 191 pM | –
CC1(C)c2cc(Cl)ccc2C(=O)N1c1cncc(N2CC3(CN(C(=O)c4cnccc4C#N)C3)C2)c1 [Example 50, 3-[6-[5-(6-Chloro-1,1-dimethyl-3-oxo-isoindolin-2-yl)-3-pyridyl]-2,6-diazaspiro[3.3]heptane-2-carbonyl]pyridine-4-carbonitrile] | 16800 pM | 24.8 pM | –
